Assay [1] is described as follows: Luminescence Cell-Based Dose Response to Identify Activators of 5'UTR Stem-Loop Driven Prion Protein mRNA Translation in H4-C Neuroglioblastoma Cells. [Related pubchem assays: 1829 (Project Summary), 1814 (Primary HTS)]. The assay is classed as functional.
Assay [2] can be described thus: Luminescence Cell-Based Dose Confirmation HTS to Identify Activators of 5'UTR Stem-Loop Driven Alpha-Synuclein mRNA Translation in H4 Neuroglioblastoma Cells. [Related pubchem assays: 1829 (Project Summary), 1814 (Primary HTS)]. The assay is classed as functional.
Assay [3] is described as follows: Luminescence Cell-Based Dose Response HTS to Identify Activators of Luciferase Translation or Activity in H4 […] Cells. [Related pubchem assays: 1829 (Project Summary), 1814 (Primary HTS)]. The class given is functional.
Assay [4] in a line: Luminescence Cell-Based Dose Response to Identify Activators of Luciferase Translation or Activity in H4-C Neuroglioblastoma Cells. [Related pubchem assays: 1829 (Project Summary), 1814 (Primary HTS)]. The assay is classed as functional.
Assay [5] is described as follows: Luminescence Cell-Based Dose Confirmation to Identify Activators of 5'UTR Stem-Loop Driven Alpha-Synuclein mRNA Translation in H4 Neuroglioblastoma Cells. [Related pubchem assays: 1829 (Project Summary), 1814 (Primary HTS)]. The class given is functional.
The target in assay [6] is T1, Heat shock factor protein 1 (Mus musculus, UniProt P38532).
T1 sequence (P38532 whole entry): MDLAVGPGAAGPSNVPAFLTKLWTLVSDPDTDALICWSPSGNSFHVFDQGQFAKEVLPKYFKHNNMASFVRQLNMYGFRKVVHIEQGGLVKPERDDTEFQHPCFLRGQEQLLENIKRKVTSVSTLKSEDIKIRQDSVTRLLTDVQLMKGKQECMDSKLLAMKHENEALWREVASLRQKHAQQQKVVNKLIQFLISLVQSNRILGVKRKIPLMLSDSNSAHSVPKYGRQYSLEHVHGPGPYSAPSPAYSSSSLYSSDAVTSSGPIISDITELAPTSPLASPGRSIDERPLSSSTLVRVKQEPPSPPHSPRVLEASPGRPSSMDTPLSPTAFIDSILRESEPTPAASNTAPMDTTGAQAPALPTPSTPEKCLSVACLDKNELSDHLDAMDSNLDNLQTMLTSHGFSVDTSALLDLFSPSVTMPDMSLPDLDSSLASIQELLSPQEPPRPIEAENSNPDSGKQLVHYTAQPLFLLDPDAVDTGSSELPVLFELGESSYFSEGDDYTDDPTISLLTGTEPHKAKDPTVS
Put plainly: inhibition of MG132-induced HSE-luciferase signal, confirmation, cell-based, NIH3T3, luminescence, dose retest (AID 2382).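 Note: NIH3T3 fibroblasts with HSF1-driven luciferase reporter stressed by proteasome inhibitor MG132; luminescence from HSF1-driven luciferase expression after 8 hours of MG132 stress.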 The assay is classed as functional.

In assay [7] the target is Prothrombin (Homo sapiens, UniProt P00734). Briefly: Thrombin 1536 HTS Dose Response Confirmation. [Related pubchem assays: 1046 (Thrombin 1536 HTS; hits were confirmed in this assay)]. The assay is classed as functional.
Assay [8] addresses Heat shock protein HSP 90-alpha (Homo sapiens, UniProt P07900). Briefly: Luminescence-based dose response biochemical high throughput screening assay for inhibitors of the Heat Shock Protein 90 (HSP90). [Related pubchem assays: 1831 (Summary AID.), 1846 (Confirmation screen.), 1789 (Primary screen.)].
The target of assay [9] is T2, Microphthalmia-associated transcription factor (Homo sapiens, UniProt O75030).
T2 sequence (O75030 whole entry): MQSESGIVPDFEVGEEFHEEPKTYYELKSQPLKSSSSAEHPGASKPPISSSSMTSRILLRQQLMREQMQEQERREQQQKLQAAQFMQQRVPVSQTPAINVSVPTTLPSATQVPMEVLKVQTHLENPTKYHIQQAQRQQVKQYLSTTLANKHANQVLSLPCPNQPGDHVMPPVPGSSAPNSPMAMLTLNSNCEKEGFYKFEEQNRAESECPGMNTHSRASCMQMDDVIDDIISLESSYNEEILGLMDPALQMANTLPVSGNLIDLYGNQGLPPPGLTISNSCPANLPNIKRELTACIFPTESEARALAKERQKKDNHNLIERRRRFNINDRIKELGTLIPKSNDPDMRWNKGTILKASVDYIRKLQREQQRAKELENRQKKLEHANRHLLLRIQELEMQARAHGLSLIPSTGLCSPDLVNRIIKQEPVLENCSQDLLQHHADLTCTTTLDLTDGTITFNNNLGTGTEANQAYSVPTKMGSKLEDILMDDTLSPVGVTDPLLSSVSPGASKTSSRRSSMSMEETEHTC
Put plainly: TRPM1 promoter luciferase signal decrease, dose response, MITF inhibitor project, cell-based, SK-MEL-5, cherry-picked, set 3 (AID 493073).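 Note: SK-MEL-5 melanoma cells with luciferase driven by the MITF target TRPM1 promoter.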 The class given is functional.

Assay [10] deals with Paired box protein Pax-8 (Homo sapiens, UniProt Q06710). Briefly: inhibitors of PAX8-driven TPO luciferase reporter, dose response, RMG-I cells, cherry-pick (AID 687027).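 Note: luciferase reporter driven by Pax8 target thyroperoxidase promoter measured by SteadyGlo luminescence.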 The class given is functional, cell-based.
Chain of Paired box protein Pax-8 (Q06710 whole entry): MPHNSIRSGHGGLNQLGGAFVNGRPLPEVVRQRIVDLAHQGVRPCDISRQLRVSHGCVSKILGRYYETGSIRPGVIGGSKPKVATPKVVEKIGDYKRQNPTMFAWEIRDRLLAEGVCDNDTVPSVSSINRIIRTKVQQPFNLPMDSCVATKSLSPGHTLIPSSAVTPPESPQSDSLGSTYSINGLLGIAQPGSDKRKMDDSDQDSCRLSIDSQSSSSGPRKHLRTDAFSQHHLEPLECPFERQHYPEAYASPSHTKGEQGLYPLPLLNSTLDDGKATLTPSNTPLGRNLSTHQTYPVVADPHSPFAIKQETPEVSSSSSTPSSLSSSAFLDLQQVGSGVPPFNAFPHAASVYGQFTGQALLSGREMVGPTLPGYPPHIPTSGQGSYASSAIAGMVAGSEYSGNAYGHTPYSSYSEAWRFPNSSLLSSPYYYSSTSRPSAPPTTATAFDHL
A short description of assay [11]: A549 cell cytotoxicity, dose response, cytotoxicity control, 24 h, CellTiter-Glo luminescence, cherry-picks (AID 1053115). The assay is classed as functional, cell-based. The following applies: A549, 24 h.
Assay [12] in a line: NIH:OVCAR-3 ovarian cancer cell cytotoxicity, dose response, PAX8 inhibitor project, plate reader, dry powder samples (AID 743044). The class given is functional, cell-based.
The nature of assay [13]: HEK293T cytotoxicity, dose response, cytotoxicity control for miR-122 modulator project, cell-based, activator set, cherry-pick (AID 720690).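 Note: HEK293T human cells scored for general mammalian cytotoxicity.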 The assay is classed as functional.
Assay [14] is described as follows: cytotoxicity in OVCAR8 ovarian cancer cells, dose response, PAX8 project, cell-based, plate reader, dry powder samples (AID 743197). The assay is classed as functional. The settings on record: OVCAR-8.
Assay [15] in a line: A549 cell cytotoxicity, dose response, CellTiter-Glo luminescence, dry powder, set 17 (AID 1117284). The class given is functional, cell-based. In general terms: ATP-based viability assays read luminescence as a measure of living cells.
A short description of assay [16]: TRPM1 promoter luciferase reporter signal decrease, dose response, MITF inhibitor project, cell-based, SK-MEL-5, dry powder, set 9 (AID 651588). The class given is functional.
The nature of assay [17]: MITF Orthogonal Assay: MALME3 CTG Assay Measured in Cell-Based System Using Plate Reader - 2084-04_Inhibitor_Dose_DryPowder_Activity_Set6. The settings on record: MALME-3. The assay is classed as functional.
Assay [18] is described as follows: SK-MEL-5 parental cell viability reduction, dose response, orthogonal assay for MITF inhibitor project, CellTiter-Glo luminescence, dry powder, set 8 (AID 651586). The assay is classed as functional, cell-based.
The nature of assay [19]: MALME3 melanoma cell viability reduction, dose response, orthogonal assay for MITF inhibitor project, CellTiter-Glo luminescence, dry powder, set 5 (AID 651584). The class given is functional, cell-based. The settings on record: MALME-3.
Assay [20] is described as follows: MITF Orthogonal Assay: SK-MEL-5 CTG Assay Measured in Cell-Based System Using Plate Reader - 2084-02_Inhibitor_Dose_DryPowder_Activity_Set7. The assay is classed as functional.
Assay [21] in a line: MITF: Counter assay: A375 proliferation Measured in Cell-Based System Using Plate Reader - 2084-03_Inhibitor_Dose_DryPowder_Activity_Set8. The class given is functional. The following applies: A-375.
The nature of assay [22]: A375 melanoma cell viability loss, dose response, counter-screen for MITF modulator project, CellTiter-Glo luminescence, dry powder, set 9 (AID 651591). The class given is functional, cell-based. The following applies: A-375.
Assay [23] can be described thus: TRPM1 promoter luciferase reporter signal decrease, dose response, MITF inhibitor project, cell-based, SK-MEL-5, dry powder, set 8 (AID 624430). The class given is functional. (In general: In a reporter assay the amount or activity of a reporter protein is the signal.)
In assay [24] the target is Protein Tat (Human immunodeficiency virus type 1 group M subtype B (isolate HXB2)(HIV-1), UniProt P04608). The class given is functional.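 Note: tat binding to TAR RNA read out by fluorescence polarization.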
Chain of Protein Tat (P04608 whole entry): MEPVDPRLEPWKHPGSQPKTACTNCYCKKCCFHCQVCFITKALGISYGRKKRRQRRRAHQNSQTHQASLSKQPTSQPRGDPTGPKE
A short description of assay [25]: Concentration-dependent survival of SW480 colon cancer line, luminescence detection with CellTiter-Glo, half-maximal inhibitory concentration (AID 1117338). The class given is functional.
Assay [26] is described as follows: RKO cell viability reduction, dose response, CellTiter-Glo luminescence (AID 1117322). The assay is classed as functional.
A short description of assay [27]: cytotoxicity toward HCT116 cells – cell-based, CellTiter-Glo luminescence, IC50, dose response (AID 1117332). The assay is classed as functional. The following applies: HCT-116.
Assay [28] in a line: SNU-C1 cell viability reduction, dose response, CellTiter-Glo luminescence (AID 1117323). The assay is classed as functional, cell-based.
A short description of assay [29]: cytotoxicity toward Colo320 cells – cell-based, CellTiter-Glo luminescence, IC50, dose response (AID 1117334). The class given is functional. The settings on record: COLO 320.
The nature of assay [30]: cytotoxicity toward HT-29 cells – cell-based, CellTiter-Glo luminescence, IC50, dose response (AID 1117330). The assay is classed as functional.
The nature of assay [31]: CellTiter-Glo luminescent dose response of DLD-1 viability loss (AID 1117352). The class given is functional.
The nature of assay [32]: HCT116 cell viability decrease, GSK3B pretreatment – CellTiter-Glo, IC50, dose response (AID 1117339). The class given is functional. The following applies: HCT-116.

Consider six compounds from ChEMBL document CHEMBL1201862, “PubChem BioAssay data set” (2004).

Calls of active or inactive are those of the source.

The term EC50 denotes the concentration at which the effect is half-maximal. In the case of `O=C(NC1CCCCCC1)c1ccc(CN2CCOCC2)cc1`, the EC50 in assay [1] was 0.889 µM (active); in assay [2], < 0.1 µM (active); in assay [3] it was 17.5 µM (active); in assay [4], 0.67 µM (active); in assay [5], 0.406 µM (active).

As usually defined, the IC50 is the midpoint of a concentration-inhibition curve. The AC50 is the concentration at which the activity in the assay is half-maximal. Consider `Cc1ccc2nc(NC(=O)CSCC(=O)OCC(=O)c3ccccc3)sc2c1`, for which the concentration for a half-maximal effect (EC50) in assay [6] is 1.05 µM (active). In addition, the IC50 is 0.0897 µM (active) in assay [7] and 5.17 µM (active) in [8]. The AC50 in [9] is 5.78 µM (active).

In the case of `C[C@@H](O)C#Cc1ccc2c(c1)O[C@H](CN(C)Cc1ccc(-c3ccccc3)cc1)[C@@H](C)CN([C@@H](C)CO)S2(=O)=O`, the half-maximal activity concentration (AC50) in assay [10] was 4.84 µM (active); in assay [11], 51.8 µM (active); in assay [12] it was 50.2 µM (active); in [13] it was 19.4 µM (active); in assay [14], > 70 µM (inactive); in assay [15], 28.6 µM (active).

In the case of `O=C1C(Nc2ccc(Br)cc2)=C(N2CCCCC2)C(=O)c2ccccc21`, the half-maximal activity concentration (AC50) in assay [16] was 15.3 µM (active); in assay [17], 15.7 µM (active); in assay [18], > 70 µM (inactive); in assay [19], 15.7 µM (active); in [20], 4.57 µM (active); in [21], 47.2 µM (active). The half-maximal activity concentration (AC50) in assay [22] is 32.8 µM (active); in [23], 4.44 µM (active).

Turning to `CCSC1=C(C#N)C(c2cccs2)/C(=C(\O)OC)C(C)=N1` (configuration not stated), in assay [24], the IC50 is > 100 µM (active).

On to `CSc1ccc2c(c1)N(CCC1CCCCN1C)c1ccccc1S2` (configuration not stated) [THIORIDAZINE], for which the IC50 in [25] is 3.71 µM (active); in assay [26], 5.49 µM (inactive); in assay [27], > 20 µM (inactive); in [28], 2.9 µM (active); in assay [29] it was 7.92 µM (inactive); in [30] it was 5.9 µM (inactive). The IC50 was > 20 µM (inactive) in assay [31] and 8.11 µM (inactive) in assay [32].
